Test results published in patent US20240300942A1, “SMALL MOLECULES FOR TREATEMENT OF CANCER” (VRise Therapeutics Inc., priority 2021, published 2024).

Tests used:
MIAPACA-2 cell line = assay: In vitro cell proliferation assay (CCK-8) in MIAPACA-2 cell line; type: cell-based; conditions: Homo sapiens, MIA PaCa-2, 72 hours; for inhibition at 10 µM: TC2: Test Concentration of 10 uM; for inhibition at 3 µM: TC1: Test Concentration of 3 uM
Procedure: (§1) Growth inhibition assays is to be carried out using 10% FBS supplemented media. Cells are to be seeded at a desired concentration of 1,500-6,000 cells/well in a 96-well plate. Test compounds at a concentration range from 1 to 30 uM will be added after 24 hours. Growth will be assessed using the CCK-8 kit for measuring reduction at 0 h (prior to the addition of the test compound) and 72 hours after the addition of test compound. Absorbance read on a BIO-RAD iMark Microplate or any equivalent microplate reader at a wavelength of 450 nm. Data was analysed and percent inhibition due to the test compound compared to the control is calculated accordingly.

NCI-H358 cell line = assay: In vitro cell proliferation assay (CCK-8) in NCI-H358 cell line; type: cell-based; conditions: Homo sapiens, 72 hours; for inhibition at 10 µM: TC2: Test Concentration of 10 uM; for inhibition at 3 µM: TC1: Test Concentration of 3 uM
Procedure: as §1

Row | SMILES | inhibition at 10 µM (MIAPACA-2 cell line) [%] | inhibition at 10 µM (NCI-H358 cell line) [%] | inhibition at 3 µM (MIAPACA-2 cell line) [%] | inhibition at 3 µM (NCI-H358 cell line) [%]
1 | C=CC(=O)N1CCN(c2nc(N3CCN(CC)CC3)c(C#N)c3c2CCN(c2cccc4ccccc24)C3)CC1 [Ex 54, 1-(4-acryloylpiperazin-1-yl)-3-(4-ethylpiperazin-1-yl)-6-(naphthalen-1-yl)-5,6,7,8-tetrahydro-2,6-naphthyridine-4-carbonitrile] | 75 to 100 | 75 to 100 | – | –
2 | C=C(F)C(=O)N1CCN(c2nc(OC[C@@H]3CCCN3C)c(C#N)c3c2CCN(c2cccc4cccc(Cl)c24)C3)C[C@H]1CC#N [Ex 28, 6-(8-chloronaphthalen-1-yl)-1-((R)-3-(cyanomethyl)-4-(2-fluoroacryloyl)piperazin-1-yl)-3-(((S)-1-methylpyrrolidin-2-yl)methoxy)-5,6,7,8-tetrahydro-2,6-naphthyridine-4-carbonitrile] | 75 to 100 | 75 to 100 | 75 to 100 | 50 to 75
3 | C=CC(=O)N1CCN(c2nc(OC[C@@H]3CCCN3C)c(C#N)c3c2CCN(c2cccc4cccc(Cl)c24)C3)CC1CC#N (single isomer, unassigned) [Ex 24] | 75 to 100 | 75 to 100 | 75 to 100 | 75 to 100
4 | C=CC(=O)N1CCN(c2nc(OC[C@@H]3CCCN3C)c(C#N)c3c2CCN(c2cccc4ccccc24)C3)CC1 [Ex 55, (S)-1-(4-acryloylpiperazin-1-yl)-3-((1-methylpyrrolidin-2-yl)methoxy)-6-(naphthalen-1-yl)-5,6,7,8-tetrahydro-2,6-naphthyridine-4-carbonitrile] | 75 to 100 | 75 to 100 | – | –
5 | C=CC(=O)N1CCN(c2nc(OC[C@@H]3CCCN3C)c(C#N)c3c2CCN(c2cccc4cccc(Cl)c24)C3)CC1CC#N (mixture of isomers) [Ex 23, 1-(4-acryloyl-3-(cyanomethyl)piperazin-1-yl)-6-(8-chloronaphthalen-1-yl)-3-(((S)-1-methylpyrrolidin-2-yl)methoxy)-5,6,7,8-tetrahydro-2,6-naphthyridine-4-carbonitrile] | 75 to 100 | 75 to 100 | 75 to 100 | 75 to 100
6 | C=CC(=O)N1CCN(c2nc(N3CC(C)OC(C)C3)c(C#N)c3c2CCN(c2cccc4ccccc24)C3)CC1 (stereo not drawn) [Ex 52, 1-(4-acryloylpiperazin-1-yl)-3-(2,6-dimethylmorpholino)-6-(naphthalen-1-yl)-5,6,7,8-tetrahydro-2,6-naphthyridine-4-carbonitrile] | 75 to 100 | 75 to 100 | – | –
7 | C=CC(=O)N1CCN(c2nc(N3CCN(C)CC3)c(C#N)c3c2CCN(Cc2ccccc2)C3)[C@@H](C)C1 [Ex 38, (S)-1-(4-acryloyl-2-methylpiperazin-1-yl)-6-benzyl-3-(4-methylpiperazin-1-yl)-5,6,7,8-tetrahydro-2,6-naphthyridine-4-carbonitrile] | – | ≤ 25 | – | –
8 | C=CC(=O)N1CCN(c2nc(N3CCN(C(=O)CC)CC3)c3c(c2C#N)CN(c2cccc4ccccc24)CC3)CC1 [Ex 49, 3-(4-acryloylpiperazin-1-yl)-6-(naphthalen-1-yl)-1-(4-propionylpiperazin-1-yl)-5,6,7,8-tetrahydro-2,6-naphthyridine-4-carbonitrile] | – | 75 to 100 | – | –
9 | C=CC(=O)N1CCN(c2nc(OCC3CCCN3C)c(C#N)c3c2CCN(Cc2ccccc2)C3)CC1 (stereo not drawn) [Ex 45, 1-(4-acryloylpiperazin-1-yl)-6-benzyl-3-((1-methylpyrrolidin-2-yl)methoxy)-5,6,7,8-tetrahydro-2,6-naphthyridine-4-carbonitrile] | – | ≤ 25 | – | –
10 | C=CC(=O)N1CCN(c2nc(N3CCN(C)CC3)c(C#N)c3c2CCN(C(=O)c2cccc4ccccc24)C3)CC1CC#N (stereo not drawn) [Ex 37, 6-(1-naphthoyl)-1-(4-acryloyl-3-(cyanomethyl)piperazin-1-yl)-3-(4-methylpiperazin-1-yl)-5,6,7,8-tetrahydro-2,6-naphthyridine-4-carbonitrile] | – | 75 to 100 | – | –
11 | C=C(F)C(=O)N1CCN(c2nc(OC[C@@H]3CCCN3C)c(C#N)c3c2CCN(c2cccc4cccc(Cl)c24)C3)C[C@@H]1CC#N [Ex 27, 6-(8-chloronaphthalen-1-yl)-1-((S)-3-(cyanomethyl)-4-(2-fluoroacryloyl)piperazin-1-yl)-3-(((S)-1-methylpyrrolidin-2-yl)methoxy)-5,6,7,8-tetrahydro-2,6-naphthyridine-4-carbonitrile] | – | 75 to 100 | – | 50 to 75
12 | C=CC(=O)N1CCN(c2nc(N3CCCCC3)c(C#N)c3c2CCN(c2cccc4ccccc24)C3)CC1 [Ex 44, 1-(4-acryloylpiperazin-1-yl)-6-(naphthalen-1-yl)-3-(piperidin-1-yl)-5,6,7,8-tetrahydro-2,6-naphthyridine-4-carbonitrile] | – | ≤ 25 | – | –
13 | C=CC(=O)N1CCN(c2nc(N3CCN(C(=O)C=C)CC3)c3c(c2C#N)CN(Cc2ccccc2)CC3)CC1 [Ex 32, 1,3-bis(4-acryloylpiperazin-1-yl)-6-benzyl-5,6,7,8-tetrahydro-2,6-naphthyridine-4-carbonitrile] | – | 50 to 75 | – | –
14 | C=CC(=O)N1CCN(c2nc(N3CCOCC3)c(C#N)c3c2CCN(c2cccc4ccccc24)C3)CC1 [Ex 50, 1-(4-acryloylpiperazin-1-yl)-3-morpholino-6-(naphthalen-1-yl)-5,6,7,8-tetrahydro-2,6-naphthyridine-4-carbonitrile] | – | 75 to 100 | – | –
15 | C=CC(=O)N1CCN(c2nc(N3CCN(S(C)(=O)=O)CC3)c(C#N)c3c2CCN(c2cccc4ccccc24)C3)CC1 [Ex 53, 1-(4-acryloylpiperazin-1-yl)-3-(4-(methylsulfonyl)piperazin-1-yl)-6-(naphthalen-1-yl)-5,6,7,8-tetrahydro-2,6-naphthyridine-4-carbonitrile] | 75 to 100 | 75 to 100 | – | –
16 | C=CC(=O)N1CCN(c2nc(O)c(C#N)c3c2CCN(Cc2ccccc2)C3)CC1 [Ex 40, 1-(4-acryloylpiperazin-1-yl)-6-benzyl-3-hydroxy-5,6,7,8-tetrahydro-2,6-naphthyridine-4-carbonitrile] | – | ≤ 25 | – | –
17 | C=CC(=O)N1CCN(c2nc(N3CCN(C(=O)C=C)CC3)c3c(c2C#N)CN(c2cccc4sccc24)CC3)CC1 [Ex 47, 1,3-bis(4-acryloylpiperazin-1-yl)-6-(benzo[b]thiophen-4-yl)-5,6,7,8-tetrahydro-2,6-naphthyridine-4-carbonitrile] | – | 75 to 100 | – | –
18 | C=CC(=O)N1CCN(c2nc(N3CCN(C)CC3)c(C#N)c3c2CCN(Cc2ccccc2)C3)CC1CC#N (stereo not drawn) [Ex 36, 1-(4-acryloyl-3-(cyanomethyl)piperazin-1-yl)-6-benzyl-3-(4-methylpiperazin-1-yl)-5,6,7,8-tetrahydro-2,6-naphthyridine-4-carbonitrile] | – | 25 to 50 | – | –
19 | C=CC(=O)N1CCN(c2nc(N3CCN(C(=O)C=C)CC3)c3c(c2C#N)CN(c2cccc4ccccc24)CC3)CC1 [Ex 46, 1,3-bis(4-acryloylpiperazin-1-yl)-6-(naphthalen-1-yl)-5,6,7,8-tetrahydro-2,6-naphthyridine-4-carbonitrile] | – | 75 to 100 | – | –
